Measurements taken from ChEMBL document CHEMBL3507680, “University of Dundee, Gates Library screen for HepG2 cell viability”.

Experiment: Human HepG2 cell viability assay in 384 well format
Type: toxicity, cell-based
Parameters: dose 125 nL, time 70.5 hour; concentration not given beside the values
Conditions: HepG2 cells, read-out: Inhibition

Row | SMILES | cytotoxicity at 70.5 h
1 | COCCC(=O)N1CCC(c2cc(O)n(C)n2)C1 (stereo not drawn) | 1.63%
2 | Fc1ccccc1CO[C@@H]1C[C@H]2CN(c3ncccn3)CCN2C1 | 4.66%
3 | COc1ccccc1OCCCc1cc(C)nc(N)n1 | -7.2%
4 | c1cncc(CN2CCn3cc(Cn4cccn4)nc3C2)c1 | -7.42%
5 | OC(CN1CCN(Cc2ccccc2)CC1)C1CC1 (stereo not drawn) | -10.4%
6 | CCOc1cc(CNCc2cnc(C)cn2)c(Cl)cc1OC(C)C | 3.1%
7 | CCC(Nc1ccc(CCN2CCCCC2)cc1)C(N)=O (stereo not drawn) | -8.14%
8 | CSC(C)(C)CNC(=O)NC(c1nnc2n1CCC2)C(C)C (stereo not drawn) | -3.59%
9 | CCn1ccnc1CN1CCCN(CC2CC2)C(C(C)C)C1 (stereo not drawn) | -5.83%
10 | Cc1nc(C2CCCN(C(=O)c3c(C)nn4cccnc34)C2)no1 (stereo not drawn) | -4.04%
11 | Cn1cc(NC(=O)N2CCN(Cc3cscn3)CC2)ccc1=O | -9.04%
12 | O=C(CCc1nc(C2CC2)no1)c1ccc2c(c1)OCCO2 | -16.9%
13 | Cn1nc(C2CCN(C(=O)Cc3cccc(F)c3)CC2)c2cccnc21 | -6.14%
14 | c1ccc2c(Cc3nnc([C@H]4CCNC4)o3)c[nH]c2c1 | -2.38%
15 | CNC(=O)CN1CCO[C@H]2CN(C(=O)c3ccncc3F)C[C@H]21 | -3.77%
16 | COc1cccc(CN(C)C(=O)Nc2ccc3c(c2)OCCO3)c1 | 12.4%
17 | Cn1nccc1C(=O)N1CCOC(Cc2cccc(C(F)(F)F)c2)C1 (stereo not drawn) | 4.43%
18 | CC[C@H](C)Nc1ncc(-c2ccn(C3CCN(C(C)=O)CC3)n2)cn1 | -5.16%
19 | O=C(CN1CCC(N2CCNC2=O)CC1)NCC(F)(F)F | -11.3%
20 | Cc1ccccc1C(CC(=O)NCc1nnc(N)s1)c1ccccc1 (stereo not drawn) | -3.82%
21 | O=C(c1ccc(Cl)cc1)N1CCC(N2CCCCC2=O)CC1 | -7.46%
22 | COc1ccc(OC)c(C2SCC(=O)Nc3n[nH]cc32)c1 (stereo not drawn) | -9.28%
23 | Cc1ccc(CNC(=O)NC2CCCN(c3ncccn3)C2)n1C (stereo not drawn) | -8.01%

Row | SMILES | cytotoxicity at 70.5 h
24 | Cc1nc(NCc2cccnc2)cc(C2COCCN2)n1 (stereo not drawn) | -5.63%
25 | Cn1ccnc1C(=O)NCc1cc(=O)n2c(n1)CN(CC1CC1)CCC2 | -4.68%
26 | NCCCC(=O)NCC1(O)CCN(c2ccnc3cccnc23)C1 (stereo not drawn) | -7.06%
27 | c1cncc(OCC2CN(Cc3nccs3)Cc3nccn3C2)c1 (stereo not drawn) | -15.5%
28 | c1cncc(CO[C@H]2CN(Cc3ccco3)[C@@H]3COC[C@H]23)c1 | -3.78%
29 | O=C1NCC2(CCCN(C(=O)Nc3ccc4occc4c3)CC2)O1 (stereo not drawn) | -1.24%
30 | Cc1cc2ncc(CN(C)C)c(C3CCN(C)CC3)n2n1 | 13.7%
31 | O=C(c1ccncc1)N1CC[C@@H]2[C@@H](CC1)OCCN2c1cccnc1 | -7.36%
32 | Cc1nccc(C2CCCCN2Cc2ccccc2)n1 (stereo not drawn) | -5%
33 | O=C(c1cnc(-c2ccccc2)s1)N1CCC2(CC1)OCCO2 | 7.39%
34 | COc1ccccc1C1Cn2c(C)cnc2CN1Cc1ccc(C)nc1 (stereo not drawn) | 22.5%
35 | CCCNC(=O)CCC(=O)Nc1cc2sc(C)nc2cc1OC | 0.815%
36 | CCNC(=O)CN1CCN(c2ccnc3c(F)ccc(F)c23)CC1 | -7.66%
37 | CS(=O)(=O)NCc1nnc2n1CCN(Cc1ccc(F)cc1)C2 | -3.88%
38 | Cn1cnnc1S(=O)(=O)Cc1cc(Cl)c2c(c1)OCCO2 | -1.41%
39 | CCc1nc(C2CCCN2Cc2nc(CCOC)no2)no1 (stereo not drawn) | -9.31%
40 | CN(C)C(=O)Cc1nc(CN2CCCC2Cn2cncn2)cs1 (stereo not drawn) | -10.9%
41 | CCc1ccc(CN2C[C@@H]3OCCN(c4ccnc(N(C)C)n4)[C@@H]3C2)o1 | 5.59%
42 | CCN(C)c1nccc(N2CCN[C@H]3CS(=O)(=O)C[C@H]32)n1 | 10.7%
43 | Cn1cncc1-c1nnc([C@H]2CCN(Cc3ncc[nH]3)C2)o1 | 2.99%
44 | CC/C=C(/C)C(=O)N1CSCC1C(=O)N(C)CCc1ccncc1 (stereo not drawn) | -4.98%
45 | Cc1nc(O)cc(C2CCCN(C(=O)COCc3ccccc3)C2)n1 (stereo not drawn) | 1.06%
46 | CN1CCN(Cc2cn3c(n2)CN(Cc2cccnc2)CC3)CC1 | 19.4%

Row | SMILES | cytotoxicity at 70.5 h
47 | CN1CCOC(CNC(=O)Cc2coc(-c3ccccc3)n2)C1 (stereo not drawn) | -13.1%
48 | NC(=O)c1cnc(-c2ccccc2)nc1CCNC(=O)CN1CCCC1 | 9.13%
49 | CCOC(C)c1noc(CN(C)C(=O)c2ccncc2)n1 (stereo not drawn) | 0.244%
50 | COc1cccc(CN2CCC3(CC2)CCN(C(=O)[C@@H]2CCCO2)C3)c1 | -8.83%
51 | Cc1noc(-c2ccnc(N3CCN(C4CCOCC4)CC3)c2)n1 | 10.1%
52 | COCCN(C)C[C@@H]1CN(c2nc(C)cc(C)n2)C[C@@H]1CO | 1.4%
53 | COc1ccc(C2=CCN(C(=O)CN(C)S(C)(=O)=O)CC2)cc1 | -10.2%
54 | CS(=O)(=O)Cc1ccc(Cl)c(NCc2noc(C3CC3)n2)c1 | 0.67%
55 | CSCC(C)N(C)C(=O)CN1CCN(c2ccccn2)CC1 (stereo not drawn) | 17.8%
56 | Cc1ccc(CNS(=O)(=O)CCCC#N)cc1F | -4.22%
57 | O=C(c1cnccn1)N1CCc2ncnc(C3CCOC3)c2CC1 (stereo not drawn) | -9.35%
58 | CN1CCOC(CNCc2nc(-c3ccoc3)no2)C1 (stereo not drawn) | -6.11%
59 | c1cc(CCNc2ncnc3c2CCN(Cc2ccoc2)CC3)ccn1 | 0.564%
60 | Cc1cccc2c1nc1n2[C@@H](CNC(=O)Cc2ccccc2)COC1 | -1.08%
61 | O=C1CCCC2=C1C(c1ccc(Cl)cc1Cl)Nc1nonc1N2 (stereo not drawn) | -1.65%
62 | CCc1cc(C(=O)N2CCc3nc4c(C)csc4c(=O)n3CC2)on1 | 20.2%
63 | CCCC(C)C(=O)Nc1ccc(OC)nc1N1CCN(C(C)=O)CC1 (stereo not drawn) | -6.89%
64 | CN(Cc1ccsc1)C(=O)c1nc(N2CCCCC2)ncc1Cl | -14.3%
65 | Cc1cnc(N2CCC(OCCN3CCCCC3)C2)nc1C (stereo not drawn) | -4.38%
66 | CO[C@H]1CCN(C(=O)Cc2ccsc2)[C@@H]2CN(CC3CC3)C[C@H]12 | -4.21%
67 | C=Cn1ncc(CN2C[C@@H]3CCCN3C[C@@H]2CCSC)c1C | -6.32%
68 | Cc1ncc(S(C)(=O)=O)c(C2CCCNC2)n1 (stereo not drawn) | 2.69%
69 | CCn1nc(C)c(CCNC(=O)c2cccc(NCC(=O)O)c2)c1C | 1.17%

Row | SMILES | cytotoxicity at 70.5 h
70 | O=c1[nH]c(-c2ccc(F)cc2)nc2c1CCNC2 | -0.466%
71 | CCCc1ccc(OC23CCCN(CC2)C3)c(OC)c1 (stereo not drawn) | -9.71%
72 | O=C(CN(Cc1ccco1)C1CC1)Nc1ccc(Br)cn1 | -17.6%
73 | CCn1nc(C)cc1C(=O)N1CCOc2cc(C)ccc21 | -7.11%
74 | O=S(=O)(C1CC1)N1C[C@H](Oc2ccccn2)[C@H]2OCCC[C@H]21 | -0.632%
75 | Cc1ccc(CC(=O)N2CCOC(c3ncc(CN(C)C)[nH]3)C2)s1 (stereo not drawn) | -6.18%
76 | Cc1cc(C2CCCCCN2Cc2cn(C)nc2C)no1 (stereo not drawn) | -6.86%
77 | O=C1NCCCCC1Sc1n[nH]c(=O)n1C1CC1 (stereo not drawn) | 15.9%
78 | CC(C)CN(C(=O)Nc1cccnc1)C1CC1 | -7.03%
79 | CCc1cc(C(=O)N2CCCC2c2nc(O)cc(CC)n2)on1 (stereo not drawn) | -1.1%
80 | COC(=O)c1cccc(S(=O)(=O)NC(=O)CC2CCCC2)c1 | 22.5%
81 | CN1CC(c2ccccc2)CC12CCN(C(=O)c1ccc(Cl)cc1)CC2 (stereo not drawn) | 7.42%
82 | COCCN1C[C@H]2CC[C@@H]1CN(C(=O)CCc1n[nH]c(C)c1C)C2 | 6.62%
83 | CC(CCN1CCOCC1)NC(=O)c1cccc(C(F)(F)F)c1F (stereo not drawn) | -5.66%
84 | CC(C)c1nccn1C(C)C(=O)N1CCN(c2cnccn2)CC1 (stereo not drawn) | -11.1%
85 | O=C1N(CCO)CCCC12CCN(Cc1nnc(C3CC3)o1)C2 (stereo not drawn) | 0.803%
86 | CCOC(=O)[C@@H]1[C@@H](c2ccccc2)CN2CCN(C(=O)N(C)C)C[C@H]12 | -5.43%
87 | Cc1cccc(N2CCC3(CCCN(C(=O)Cc4cccnc4)C3)C2)n1 (stereo not drawn) | 21.3%
88 | COC(=O)c1cccc2nc([C@H]3CCN(Cc4ccccc4C)C3)oc12 | -14.2%
89 | O=C1C[C@H]2[C@@H](CCN2C(=O)Cc2ccccc2)N1Cc1cccnc1 | -8.76%
90 | Fc1ccc(-c2cnc(CN3CCn4c(nnc4C4CC4)C3)o2)cc1 | -9.29%
91 | COc1ccccc1N1CCN(C(=O)c2ccnc(N(C)C)c2)CC1 | 36.2%
92 | COc1cc(C)sc1C(=O)NCCC(=O)N(C)c1ccccc1 | -2.86%

Row | SMILES | cytotoxicity at 70.5 h
93 | Cn1cc(CN2CCCC3(CCN(Cc4cccnc4)C3=O)C2)cn1 (stereo not drawn) | -13.4%
94 | COCCC1CCN(CC(C)n2cnc3ccccc32)CC1 (stereo not drawn) | -17.3%
95 | COC1(CNC(=O)NCc2ccccc2)CCSC1 (stereo not drawn) | -9.9%
96 | Cn1cc(CN2CCc3ncnc(N4CCOCC4)c3CC2)cn1 | -1.66%
97 | COc1cccc(-c2cc(C(=O)Nc3nc[nH]n3)[nH]n2)c1 | -11.1%
98 | COc1ccc(OCCCNC(=O)NCc2csc(C)n2)cc1 | -7.03%
99 | CN(C)c1ccc(C(=O)Nc2ccn(CC(N)=O)n2)cn1 | -8.63%
100 | COCCN1CCC(CNC(=O)C2(c3cccc(Cl)c3)CC2)C1 (stereo not drawn) | -0.451%
101 | CCn1nc(C)c(CNC(=O)c2cn(CC3CCCO3)nn2)c1C (stereo not drawn) | -1.67%
102 | CCc1noc(-c2cccc(OCC(=O)NC(C)C)c2)n1 | -7.23%
103 | Cc1n[nH]c(C2CN(C(=O)c3ccn(C)c(=O)c3)CCO2)n1 (stereo not drawn) | 31.8%
104 | CSc1ccc(OC(C)C(=O)Nc2c(C)n[nH]c2C)cc1 (stereo not drawn) | -3.26%
105 | CSCC(C)(O)CNC(=O)c1ccc(Br)cc1F (stereo not drawn) | -5.28%
106 | CC(C)NC(=O)N1CC[C@H]2N(C)CC[C@@]2(C(=O)Nc2cccnc2)CC1 | -10.8%
107 | O=C(Nc1cccnc1)[C@H]1C[C@@H]2CN(S(=O)(=O)C3CC3)C[C@H]1O2 | -4.16%
108 | CC(NCCCc1cnn(C)c1)c1ccc(Br)s1 (stereo not drawn) | -1.02%
109 | Cc1cc2c(=O)n3c(nc2s1)CCN(C(=O)c1cnn(C)c1C)CC3 | -14.8%
110 | Cc1nsc(NC2CCOC3(CCCCC3)C2)n1 (stereo not drawn) | -8.47%
111 | Cc1cnc(N2CCC3(CC2)CC3CNC(=O)C2CCC2)nc1 (stereo not drawn) | -1.64%
112 | CN1CCN(Cc2nnc(C3CCN(CC4CC4)CC3)n2C)CC1 | -2.48%
113 | CCN(CC)c1nc(C)cc(C(=O)Nc2cnn(CC)c2)n1 | -12.1%
